“And” between values parts separate entries of the source, which are not always exact repeats. Equal entries are not always repeated.
How the values were obtained:
SfurOBP1 = SfurOBP1 (Sogatella furcifera, UniProt V5T8N5); test: biochemical; type: binding; conditions: for Fluorescence competitive binding assay, fluorescence intensity: OBP1, three replicate columns
Outline: (§1)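 Protein 2.0 µM + 1-NPN 2.0 µM, 50 mM Tris-HCl pH 7.4; competitor odorants 2, 4 … 20 µM final; read 2 min post-addition, ex 337/em 390–490 nm; n=3. K1-NPN from 1-NPN titration/Scatchard; Ki from IC50 corrected for free 1-NPN.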

SfurOBP11 = SfurOBP11 (Sogatella furcifera, UniProt V5T6E3); test: biochemical; type: binding
SfurOBP11, sequence (V5T6E3 entry or part of it): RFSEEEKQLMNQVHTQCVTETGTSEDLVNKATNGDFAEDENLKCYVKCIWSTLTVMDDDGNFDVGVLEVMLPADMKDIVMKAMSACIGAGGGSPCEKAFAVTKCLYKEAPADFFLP
Outline: as §1

SfurOBP2 = SfurOBP2 (Sogatella furcifera, UniProt V5T759); test: biochemical; type: binding
SfurOBP2, sequence (V5T759 entry or part of it): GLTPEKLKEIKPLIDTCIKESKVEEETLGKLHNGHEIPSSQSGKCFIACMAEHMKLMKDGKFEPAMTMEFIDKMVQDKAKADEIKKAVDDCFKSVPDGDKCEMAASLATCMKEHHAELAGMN
Outline: as §1

SfurOBP3 = SfurOBP3 (Sogatella furcifera, UniProt V5T818); test: biochemical; type: binding; conditions: for Fluorescence competitive binding assay, fluorescence intensity: OBP3, three replicate columns
SfurOBP3, sequence (V5T818 entry or part of it): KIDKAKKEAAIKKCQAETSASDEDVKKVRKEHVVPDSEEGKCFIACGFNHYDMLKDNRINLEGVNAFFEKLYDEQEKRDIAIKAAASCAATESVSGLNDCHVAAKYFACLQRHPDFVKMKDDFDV
Outline: as §1

S. furcifera adults = test: Y-tube olfactometer behavioral trials; type: in vivo, Sogatella furcifera; conditions: odorant 50 µL/L vs hexane
Outline: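 Single S. furcifera adults (2 days post-emergence, starved 0.5 h) chose between odorant (100 µL of 50 µL/L on filter paper) and hexane control in a glass Y-tube, charcoal-filtered humidified air 300 mL/min per arm, 25 ± 1 °C, 50% RH. Choice scored if insect passed half an arm and stayed >1 min within 10 min; 45 insects per compound, chi-squared test.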

SfurOBP1, sequence (V5T8N5 entry or part of it): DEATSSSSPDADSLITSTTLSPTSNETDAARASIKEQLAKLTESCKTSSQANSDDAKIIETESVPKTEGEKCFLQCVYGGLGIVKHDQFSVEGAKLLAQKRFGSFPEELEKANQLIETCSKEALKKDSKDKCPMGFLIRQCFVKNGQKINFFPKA

CC(=O)c1ccccc1 [acetophenone]
Fluorescence competitive binding assay, fluorescence intensity (SfurOBP1; ligand concentration 2 (μM)): 5574 and 5550 and 5238 | Fluorescence competitive binding assay, fluorescence intensity (SfurOBP1; ligand concentration 4 (μM)): 4710 and 5782 and 5020 | Fluorescence competitive binding assay, fluorescence intensity (SfurOBP1; ligand concentration 6 (μM)): 5308 and 5201 and 5270 | Fluorescence competitive binding assay, fluorescence intensity (SfurOBP1; ligand concentration 8 (μM)): 4498 and 4902 and 5186 | Fluorescence competitive binding assay, fluorescence intensity (SfurOBP1; ligand concentration 10 (μM)): 4649 and 5445 and 5409 | Fluorescence competitive binding assay, fluorescence intensity (SfurOBP1; ligand concentration 12 (μM)): 5039 and 5542 and 4835 | Fluorescence competitive binding assay, fluorescence intensity (SfurOBP1; ligand concentration 14 (μM)): 5190 and 5205 and 6069 | Fluorescence competitive binding assay, fluorescence intensity (SfurOBP1; ligand concentration 16 (μM)): 4320 and 5267 and 4703 | Fluorescence competitive binding assay, fluorescence intensity (SfurOBP1; ligand concentration 18 (μM)): 5435 and 5537 and 6009 | Fluorescence competitive binding assay, fluorescence intensity (SfurOBP1; ligand concentration 20 (μM)): 6807 and 4924 and 6337 | IC50 (SfurOBP1; SfurOBP1, protein and 1-NPN both 2.0 µM, competitor 2-20 µM, read-out: IC50): > 20 µM | IC50 (SfurOBP11; SfurOBP11, protein and 1-NPN both 2.0 µM, competitor 2-20 µM, read-out: IC50): > 20 µM | Fluorescence intensity, fluorescence competitive binding assay, OBP11 (SfurOBP11; ligand concentration 2, replicate 1): 26535 | Fluorescence intensity, fluorescence competitive binding assay, OBP11 (SfurOBP11; ligand concentration 2, replicate 2): 26162 | Fluorescence intensity, fluorescence competitive binding assay, OBP11 (SfurOBP11; ligand concentration 2, replicate 3): 26541 | Fluorescence intensity, fluorescence competitive binding assay, OBP11 (SfurOBP11; ligand concentration 4, replicate 1): 25394 | Fluorescence intensity, fluorescence competitive binding assay, OBP11 (SfurOBP11; ligand concentration 4, replicate 2): 26325 | Fluorescence intensity, fluorescence competitive binding assay, OBP11 (SfurOBP11; ligand concentration 4, replicate 3): 27262 | Fluorescence intensity, fluorescence competitive binding assay, OBP11 (SfurOBP11; ligand concentration 6, replicate 1): 26264 | Fluorescence intensity, fluorescence competitive binding assay, OBP11 (SfurOBP11; ligand concentration 6, replicate 2): 26035 | Fluorescence intensity, fluorescence competitive binding assay, OBP11 (SfurOBP11; ligand concentration 6, replicate 3): 26502 | Fluorescence intensity, fluorescence competitive binding assay, OBP11 (SfurOBP11; ligand concentration 8, replicate 1): 25045 | Fluorescence intensity, fluorescence competitive binding assay, OBP11 (SfurOBP11; ligand concentration 8, replicate 2): 25714 | Fluorescence intensity, fluorescence competitive binding assay, OBP11 (SfurOBP11; ligand concentration 8, replicate 3): 24376 | Fluorescence intensity, fluorescence competitive binding assay, OBP11 (SfurOBP11; ligand concentration 10, replicate 1): 24885 | Fluorescence intensity, fluorescence competitive binding assay, OBP11 (SfurOBP11; ligand concentration 10, replicate 2): 24226 | Fluorescence intensity, fluorescence competitive binding assay, OBP11 (SfurOBP11; ligand concentration 10, replicate 3): 23566 | Fluorescence intensity, fluorescence competitive binding assay, OBP11 (SfurOBP11; ligand concentration 12, replicate 1): 21957 | Fluorescence intensity, fluorescence competitive binding assay, OBP11 (SfurOBP11; ligand concentration 12, replicate 2): 22135 | Fluorescence intensity, fluorescence competitive binding assay, OBP11 (SfurOBP11; ligand concentration 12, replicate 3): 20925 | Fluorescence intensity, fluorescence competitive binding assay, OBP11 (SfurOBP11; ligand concentration 14, replicate 1): 23062 | Fluorescence intensity, fluorescence competitive binding assay, OBP11 (SfurOBP11; ligand concentration 14, replicate 2): 21821 | Fluorescence intensity, fluorescence competitive binding assay, OBP11 (SfurOBP11; ligand concentration 14, replicate 3): 20452 | Fluorescence intensity, fluorescence competitive binding assay, OBP11 (SfurOBP11; ligand concentration 16, replicate 1): 19007 | Fluorescence intensity, fluorescence competitive binding assay, OBP11 (SfurOBP11; ligand concentration 16, replicate 2): 19354 | Fluorescence intensity, fluorescence competitive binding assay, OBP11 (SfurOBP11; ligand concentration 16, replicate 3): 17450 | Fluorescence intensity, fluorescence competitive binding assay, OBP11 (SfurOBP11; ligand concentration 18, replicate 1): 21957 | Fluorescence intensity, fluorescence competitive binding assay, OBP11 (SfurOBP11; ligand concentration 18, replicate 2): 23680 | Fluorescence intensity, fluorescence competitive binding assay, OBP11 (SfurOBP11; ligand concentration 18, replicate 3): 21455 | Fluorescence intensity, fluorescence competitive binding assay, OBP11 (SfurOBP11; ligand concentration 20, replicate 1): 23354 | Fluorescence intensity, fluorescence competitive binding assay, OBP11 (SfurOBP11; ligand concentration 20, replicate 2): 26458 | Fluorescence intensity, fluorescence competitive binding assay, OBP11 (SfurOBP11; ligand concentration 20, replicate 3): 24921 | IC50 (SfurOBP2; SfurOBP2, protein and 1-NPN both 2.0 µM, competitor 2-20 µM, read-out: IC50): > 20 µM | Fluorescence competitive binding assay, OBP2 (raw fluorescence reading) (SfurOBP2; ligand concentration 2 (unit not given), replicate column 1 of 3): 18213 | Fluorescence competitive binding assay, OBP2 (raw fluorescence reading) (SfurOBP2; ligand concentration 2 (unit not given), replicate column 2 of 3): 17695 | Fluorescence competitive binding assay, OBP2 (raw fluorescence reading) (SfurOBP2; ligand concentration 2 (unit not given), replicate column 3 of 3): 18887 | Fluorescence competitive binding assay, OBP2 (raw fluorescence reading) (SfurOBP2; ligand concentration 4 (unit not given), replicate column 1 of 3): 18465 | Fluorescence competitive binding assay, OBP2 (raw fluorescence reading) (SfurOBP2; ligand concentration 4 (unit not given), replicate column 2 of 3): 18805 | Fluorescence competitive binding assay, OBP2 (raw fluorescence reading) (SfurOBP2; ligand concentration 4 (unit not given), replicate column 3 of 3): 18729 | Fluorescence competitive binding assay, OBP2 (raw fluorescence reading) (SfurOBP2; ligand concentration 6 (unit not given), replicate column 1 of 3): 17576 | Fluorescence competitive binding assay, OBP2 (raw fluorescence reading) (SfurOBP2; ligand concentration 6 (unit not given), replicate column 2 of 3): 17836 | Fluorescence competitive binding assay, OBP2 (raw fluorescence reading) (SfurOBP2; ligand concentration 6 (unit not given), replicate column 3 of 3): 18066 | Fluorescence competitive binding assay, OBP2 (raw fluorescence reading) (SfurOBP2; ligand concentration 8 (unit not given), replicate column 1 of 3): 15752 | Fluorescence competitive binding assay, OBP2 (raw fluorescence reading) (SfurOBP2; ligand concentration 8 (unit not given), replicate column 2 of 3): 18865 | Fluorescence competitive binding assay, OBP2 (raw fluorescence reading) (SfurOBP2; ligand concentration 8 (unit not given), replicate column 3 of 3): 17007 | Fluorescence competitive binding assay, OBP2 (raw fluorescence reading) (SfurOBP2; ligand concentration 10 (unit not given), replicate column 1 of 3): 16925 | Fluorescence competitive binding assay, OBP2 (raw fluorescence reading) (SfurOBP2; ligand concentration 10 (unit not given), replicate column 2 of 3): 17786 | Fluorescence competitive binding assay, OBP2 (raw fluorescence reading) (SfurOBP2; ligand concentration 10 (unit not given), replicate column 3 of 3): 17356 | Fluorescence competitive binding assay, OBP2 (raw fluorescence reading) (SfurOBP2; ligand concentration 12 (unit not given), replicate column 1 of 3): 16049 | Fluorescence competitive binding assay, OBP2 (raw fluorescence reading) (SfurOBP2; ligand concentration 12 (unit not given), replicate column 2 of 3): 16437 | Fluorescence competitive binding assay, OBP2 (raw fluorescence reading) (SfurOBP2; ligand concentration 12 (unit not given), replicate column 3 of 3): 16824 | Fluorescence competitive binding assay, OBP2 (raw fluorescence reading) (SfurOBP2; ligand concentration 14 (unit not given), replicate column 1 of 3): 15270 | Fluorescence competitive binding assay, OBP2 (raw fluorescence reading) (SfurOBP2; ligand concentration 14 (unit not given), replicate column 2 of 3): 15647 | Fluorescence competitive binding assay, OBP2 (raw fluorescence reading) (SfurOBP2; ligand concentration 14 (unit not given), replicate column 3 of 3): 14905 | Fluorescence competitive binding assay, OBP2 (raw fluorescence reading) (SfurOBP2; ligand concentration 16 (unit not given), replicate column 1 of 3): 15319 | Fluorescence competitive binding assay, OBP2 (raw fluorescence reading) (SfurOBP2; ligand concentration 16 (unit not given), replicate column 2 of 3): 14300 | Fluorescence competitive binding assay, OBP2 (raw fluorescence reading) (SfurOBP2; ligand concentration 16 (unit not given), replicate column 3 of 3): 16123 | Fluorescence competitive binding assay, OBP2 (raw fluorescence reading) (SfurOBP2; ligand concentration 18 (unit not given), replicate column 1 of 3): 15075 | Fluorescence competitive binding assay, OBP2 (raw fluorescence reading) (SfurOBP2; ligand concentration 18 (unit not given), replicate column 2 of 3): 15152 | Fluorescence competitive binding assay, OBP2 (raw fluorescence reading) (SfurOBP2; ligand concentration 18 (unit not given), replicate column 3 of 3): 15228 | Fluorescence competitive binding assay, OBP2 (raw fluorescence reading) (SfurOBP2; ligand concentration 20 (unit not given), replicate column 1 of 3): 14131 | Fluorescence competitive binding assay, OBP2 (raw fluorescence reading) (SfurOBP2; ligand concentration 20 (unit not given), replicate column 2 of 3): 14026 | Fluorescence competitive binding assay, OBP2 (raw fluorescence reading) (SfurOBP2; ligand concentration 20 (unit not given), replicate column 3 of 3): 13920 | Fluorescence competitive binding assay, fluorescence intensity (SfurOBP3; ligand concentration 2): 34223 and 34200 and 33767 | Fluorescence competitive binding assay, fluorescence intensity (SfurOBP3; ligand concentration 4): 34565 and 34966 and 35111 | Fluorescence competitive binding assay, fluorescence intensity (SfurOBP3; ligand concentration 6): 33473 and 32986 and 33557 | Fluorescence competitive binding assay, fluorescence intensity (SfurOBP3; ligand concentration 8): 31804 and 31815 and 33904 | Fluorescence competitive binding assay, fluorescence intensity (SfurOBP3; ligand concentration 10): 31933 and 33856 and 32393 | Fluorescence competitive binding assay, fluorescence intensity (SfurOBP3; ligand concentration 12): 28357 and 30958 and 31303 | Fluorescence competitive binding assay, fluorescence intensity (SfurOBP3; ligand concentration 14): 30291 and 29441 and 31149 | Fluorescence competitive binding assay, fluorescence intensity (SfurOBP3; ligand concentration 16): 26096 and 27512 and 26789 | Fluorescence competitive binding assay, fluorescence intensity (SfurOBP3; ligand concentration 18): 36577 and 32045 and 32081 | Fluorescence competitive binding assay, fluorescence intensity (SfurOBP3; ligand concentration 20): 29304 and 29350 and 25941 | binding affinity to SfurOBP3 (in words) (SfurOBP3; SfurOBP3): high binding affinities | IC50 (SfurOBP3; SfurOBP3, protein and 1-NPN both 2.0 µM, competitor 2-20 µM, read-out: IC50): 17.4 µM | behavioral response of S. furcifera (in words) (S. furcifera adults): strongly attracted | number of insects choosing hexane arm (S. furcifera adults; adults): 11 | number of insects choosing volatilies arm (S. furcifera adults; adults): 20 | number of insects failed (no choice) (S. furcifera adults; adults): 9

From PMC6409085, “Three odorant-binding proteins are involved in the behavioral response of Sogatella furcifera to rice plant volatiles” (PeerJ, 2019)
